In patent US8377943B2, “2,4-diaminopyrimidine derivates as PTK2-inhibitors for the treatment of abnormal cell growth” (Boehringer Ingelheim International GmbH, priority 2008, dated 2013):

Legend:
PTK2 = target: T1, PTK2 (Homo sapiens, UniProt Q05397); assay: PTK2 Enzyme Test (DELFIA assay, poly-Glu-Tyr substrate); type: biochemical; details: active PTK2 enzyme, 50 μM ATP in ATP Mix, 1 h pre-incubation
T1 construct: purchased Invitrogen PV3832
Protocol: This test uses active PTK2 enzyme (Invitrogen Code PV3832) and poly-Glu-Tyr (4:1, Sigma P-0275) as the kinase substrate. The kinase activity is detected by means of the phosphorylation of the substrate in a DELFIA™ assay. The phosphorylated substrate is detected with the Europium-labelled phosphotyrosine antibody PY20 (Perkin Elmer, No.: AD0038).
In order to determine concentration-activity curves with PTK2-inhibitors the compounds are serially diluted in 10% DMSO/H2O and 10 μL of each dilution are dispensed per well in a 96-well microtitre plate (clear U-shaped base plate, Greiner No. 650101) (the inhibitors are tested in duplicates) and mixed with 10 μL/well of PTK2 kinase (0.01 μg/well). PTK2 kinase is diluted accordingly beforehand with kinase dilution buffer (20 mM TRIS/HCl pH 7.5, 0.1 mM EDTA, 0.1 mM EGTA, 0.286 mM sodium orthovanadate, 10% glycerol with the addition of freshly prepared BSA (fraction V 1 mg/mL) and DTT (1 mM)). The test compound and the PTK2 kinase are pre-incubated for 1 h at RT and shaken at 500 rpm. Then 20 μL ATP Mix (30 mM TRIS/HCl pH 7.5, 0.02% Brij, 0.2 mM sodium orthovanadate, 10 mM magnesium acetate, 0.1 mM EGTA, 1× Phosphatase Inhibitor Cocktail 1 (Sigma, No.: P2850), 50 μM ATP (Sigma, No.: A3377; 15 mM stock solution)) are added. The reaction is started by the addition of 10 μL/well of poly (Glu,Tyr) substrate (25 μg/well poly (Glu,Tyr), 0.05 μg/well biotinylated poly (Glu,Tyr) dissolved in 250 mM TRIS/HCl pH 7.5, 9 mM DTT)—the final concentration of DMSO is 2%. After 1 h kinase reaction (the plates are shaken at 500 rpm), the reaction is stopped by the addition of 12 μL/well of 100 mM EDTA, pH 8. And shaken for a further 5 min at RT (500 U/min).
55 μL of the reaction mixture are transferred into a streptavidin plate (Strepta Well High Bind (transparent, 96-well) made by Roche, No.: 11989685001) and incubated for 1 h at RT (shaking at 500 rpm). Then the microtitre plate is washed three times with 200 μL/well D-PBS (Invitrogen, No.:14190). 100 μL of 1:2000 diluted DELFIA Eu-N1 Anti-Phosphotyrosine PY20 antibody (Perkin Elmer, No.: AD0038, 1:2000 diluted in DELFIA test buffer (Perkin Elmer, No.: 1244-111)) is then added and it is incubated for 1 h at RT (shaking at 500 rpm). Then the plate is washed three times with 200 μL/well DELFIA washing buffer (Perkin Elmer, No.: 1244-114), 200 μL/well strengthening solution (Perkin Elmer, No.: 1244-105) is added and the whole is incubated for 10 min at RT (shaking at 300 rpm).
The time-delayed europium fluorescence is then measured in a microtitre plate reader (Victor, Perkin Elmer). The positive control consists of wells that contain solvent (2% DMSO in test buffer) and display uninhibited kinase activity. Wells that contain test buffer instead of enzyme act as a control for the background kinase activity.
The IC50 values are determined from concentration-activity analyses by iterative calculation using a sigmoidal curve analysis algorithm (FIFTY, based on GraphPAD Prism Version 3.03) with a variable Hill coefficient.

[1] = target: T2, PTK2-phosphorylation at tyrosine 397 (pY397) (Homo sapiens, UniProt Q05397); assay: Phospho-PTK2 (pY397) Assay in PC-3 cells; type: cell-based; details: PC-3 prostate carcinoma cells, 2 h incubation; read-out: PC3pPTK2 Y397 EC50
T2 construct: endogenous in cells; host or cells: PC-3 (ATCC CRL-1435)
T2 sequence (Q05397 whole entry): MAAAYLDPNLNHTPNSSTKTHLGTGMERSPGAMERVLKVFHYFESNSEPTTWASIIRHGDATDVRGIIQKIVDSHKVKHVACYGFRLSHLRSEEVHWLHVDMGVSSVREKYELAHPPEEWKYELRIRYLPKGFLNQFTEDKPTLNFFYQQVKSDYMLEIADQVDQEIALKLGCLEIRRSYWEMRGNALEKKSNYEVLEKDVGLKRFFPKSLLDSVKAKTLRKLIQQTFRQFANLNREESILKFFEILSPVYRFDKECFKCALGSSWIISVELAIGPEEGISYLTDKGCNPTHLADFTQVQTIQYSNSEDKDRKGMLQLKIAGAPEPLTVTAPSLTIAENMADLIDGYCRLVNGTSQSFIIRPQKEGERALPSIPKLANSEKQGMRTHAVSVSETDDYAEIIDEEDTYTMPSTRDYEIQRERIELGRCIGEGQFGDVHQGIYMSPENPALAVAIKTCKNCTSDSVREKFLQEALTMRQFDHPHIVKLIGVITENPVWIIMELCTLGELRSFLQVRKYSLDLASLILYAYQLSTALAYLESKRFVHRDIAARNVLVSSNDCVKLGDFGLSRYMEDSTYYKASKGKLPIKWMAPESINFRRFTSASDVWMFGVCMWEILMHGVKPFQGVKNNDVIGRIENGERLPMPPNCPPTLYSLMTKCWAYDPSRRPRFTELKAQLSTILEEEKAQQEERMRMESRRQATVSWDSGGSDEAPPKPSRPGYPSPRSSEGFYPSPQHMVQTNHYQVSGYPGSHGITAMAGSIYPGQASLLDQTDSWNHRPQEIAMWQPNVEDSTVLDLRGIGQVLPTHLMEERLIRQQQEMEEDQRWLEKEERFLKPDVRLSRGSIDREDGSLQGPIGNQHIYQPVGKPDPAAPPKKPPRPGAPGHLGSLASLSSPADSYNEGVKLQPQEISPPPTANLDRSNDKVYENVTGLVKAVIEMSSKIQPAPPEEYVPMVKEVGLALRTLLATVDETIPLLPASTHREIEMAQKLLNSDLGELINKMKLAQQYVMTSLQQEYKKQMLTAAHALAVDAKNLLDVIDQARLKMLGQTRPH
Protocol: This cellular test is used to determine the influence of PTK2-inhibitors on the state of the PTK2-phosphorylation at tyrosine 397 (pY397).
PC-3 cells (prostate carcinoma, ATCC CRL-1435) are grown in cell culture flasks (175 cm^2) with F12 Kaighn's Medium (Gibco, No.: 21127) with the addition of 10% foetal calf serum (Invitrogen, No.: 16000-044). The cultures are incubated in the incubator at 37° C. and 5% CO2 and run twice a week.
For the test, 2×10^4 cells pro well/[…] are plated out in 96-well microtitre plates (Costar, No.: 3598) and incubated overnight in the incubator at 37° C. and 5% CO2. The test compounds (10 μL from serial dilution) are added the next day. The concentration of the test compounds usually covers a range of 50 μM and 0.8 nM. The test compounds (stock solution: 10 mM in 100% DMSO) are diluted in medium/medium 10% DMSO such that the final concentration is 1% DMSO. The cells are then incubated in the incubator at 37° C. and 5% CO2 for 2 h. Then the culture supernatant is removed and the cells are fixed with 150 μL 4% formaldehyde in D-PBS for 20 min at RT. The cell lawn is washed five times with 200 μL 0.1% Triton X-100 in D-PBS for 5 min in each case and then incubated for 90 min with blocking buffer (5% skimmed milk powder (Maresi Fixmilch) in TBST (25 mM Tris/HCl, pH 8.0, 150 mM NaCl, 0.05% Tween 20). The blocking buffer is replaced by 50 μL of the first antibody anti-phospho PTK2 [pY397] rabbit monoclonal (Invitrogen/Biosource, No.: 44-625G), which is diluted 1:200 in blocking buffer. For control purposes, alternatively a PTK2 [total] antibody (clone 4.47 mouse monoclonal, Upstate, No.: 05-537), diluted 1:400 in blocking buffer is used. This incubation is carried out at 4° C. overnight. Then the cell lawn is washed five times with 100 μL of 0.1% Tween in D-PBS for 5 min in each case and 50 μL/well of second antibody are added. In order to detect bound phospho-PTK2 [pY397] antibody a goat-anti-rabbit antibody is used which is coupled with horseradish peroxidase (Dako, No.: P0448; 1:500 dilution in blocking buffer). In order to detect bound PTK2 [total]-antibodies a rabbit-anti-mouse antibody is used, which is also coupled with horseradish peroxidase (Dako, No.: PO161; 1:1000 dilution in blocking buffer). This incubation is carried out for 1 h at RT with gentle shaking. The cell lawn is then again washed five times with 100 μL of 0.1% Tween in D-PBS for 5 min in each case. […] The EC50 values are determined from concentration-activity analyses by iterative calculation with the aid of a sigmoidal curve analysis algorithm (FIFTY, based on GraphPAD Prism Version 3.03) with a variable Hill coefficient.

T1 sequence (Q05397 whole entry): as above

Row | IC50 (PTK2) | EC50 [1] | SMILES
1 | 1 nM | 0.53 nM | COc1cc(C(=O)NC2CCC(N(C)C)CC2)ccc1Nc1ncc(C(F)(F)F)c(NCc2ccc(C)cc2N(C)S(C)(=O)=O)n1 (stereo not shown) [Example 51]
2 | 1 nM | 0.54 nM | COc1cc(C(=O)NC2CCN(C)CC2)ccc1Nc1ncc(C(F)(F)F)c(NCc2ccc(F)cc2N(C)S(C)(=O)=O)n1 [Example 52]
3 | 5 nM | 0.54 nM | COc1cc(C(=O)N[C@H]2CCCN(C3CCOCC3)C2)ccc1Nc1ncc(C(F)(F)F)c(NCc2ccc(C)cc2N(C)S(C)(=O)=O)n1 [Example 53]
4 | 3 nM | 0.55 nM | CNC(=O)c1cc(OC)c(Nc2ncc(C(F)(F)F)c(NCc3ccc(C)cc3N(C)S(C)(=O)=O)n2)cc1C [Example 54]
5 | 11 nM | 0.56 nM | COc1cc(C(=O)NC2CCN(c3ccccc3)CC2)ccc1Nc1ncc(C(F)(F)F)c(NCc2ccc(C)cc2N(C)S(C)(=O)=O)n1 [Example 55]
6 | 2 nM | 0.56 nM | COc1cc(CN2CCCC2)ccc1Nc1ncc(C(F)(F)F)c(NCc2ccc(C)cc2N(C)S(C)(=O)=O)n1 [Example 56]
7 | 2 nM | 0.57 nM | COc1ccc(CNc2nc(Nc3ccc(C(=O)N[C@H]4CC[C@H](N5CCOCC5)CC4)cc3OC)ncc2C(F)(F)F)c(N(C)S(C)(=O)=O)c1 [Example 57]
8 | 3 nM | 0.59 nM | COc1cc(C(=O)N[C@@H]2CCN(C)C2)c(Cl)cc1Nc1ncc(C(F)(F)F)c(NCc2ccc(C)cc2N(C)S(C)(=O)=O)n1 [Example 58]
9 | 3 nM | 0.59 nM | COc1cc(CNC2CCN(C)CC2)ccc1Nc1ncc(C(F)(F)F)c(NCc2ccc(C)cc2N(C)S(C)(=O)=O)n1 [Example 59]
10 | 4 nM | 0.6 nM | COc1cc(C(=O)NC2CCOCC2)ccc1Nc1ncc(C(F)(F)F)c(NCc2ccc(C)cc2N(C)S(C)(=O)=O)n1 [Example 60]
11 | 2 nM | 0.6 nM | COc1cc(CNC2CCC2)ccc1Nc1ncc(C(F)(F)F)c(NCc2ccc(C)cc2N(C)S(C)(=O)=O)n1 [Example 61]
12 | 3 nM | 0.63 nM | COc1cc(CNC2CCCC2)ccc1Nc1ncc(C(F)(F)F)c(NCc2ccc(C)cc2N(C)S(C)(=O)=O)n1 [Example 63]
13 | 3 nM | 0.67 nM | COc1cc(C(=O)NC2CCOC2)ccc1Nc1ncc(C(F)(F)F)c(NCc2ccc(C)cc2N(C)S(C)(=O)=O)n1 (stereo not shown) [Example 64]
14 | 4 nM | 0.67 nM | COc1cc(C(=O)N[C@H]2CC[C@@H]3[C@@H](CCN3C)C2)ccc1Nc1ncc(C(F)(F)F)c(NCc2ccc(C)cc2N(C)S(C)(=O)=O)n1 [Example 65]
15 | 1 nM | 0.7 nM | CCNCc1ccc(Nc2ncc(C(F)(F)F)c(NCc3ccc(C)cc3N(C)S(C)(=O)=O)n2)c(OC)c1 [Example 66]
16 | 7 nM | 0.7 nM | COc1cc(CNCc2ccccc2)ccc1Nc1ncc(C(F)(F)F)c(NCc2ccc(C)cc2N(C)S(C)(=O)=O)n1 [Example 67]
17 | 2 nM | 0.72 nM | COc1cc(NC(C)=O)c(C)cc1Nc1ncc(C(F)(F)F)c(NCc2ccc(C)cc2N(C)S(C)(=O)=O)n1 [Example 68]
18 | 1 nM | 0.74 nM | CNC(=O)c1ccc(Nc2ncc(C(F)(F)F)c(NCc3ccc(C)cc3N(C)S(C)(=O)=O)n2)c(OC)c1 [Example 69]
19 | 4 nM | 0.74 nM | COc1cc(C(=O)NCC2CCCO2)ccc1Nc1ncc(C(F)(F)F)c(NCc2ccc(C)cc2N(C)S(C)(=O)=O)n1 (stereo not shown) [Example 70]
20 | 3 nM | 0.74 nM | COc1cc(C(=O)NC2CC(N3CCOCC3)C2)ccc1Nc1ncc(C(F)(F)F)c(NCc2ccc(C)cc2N(C)S(C)(=O)=O)n1 (stereo not shown) [Example 71]
21 | 3 nM | 0.75 nM | COc1cc(CNC2CC2)ccc1Nc1ncc(C(F)(F)F)c(NCc2ccc(C)cc2N(C)S(C)(=O)=O)n1 [Example 72]
22 | 1 nM | 0.77 nM | COc1cc(C(=O)NC2CCN(C)CC2)ccc1Nc1ncc(C(F)(F)F)c(NCc2ccc(C)cc2N(C)S(C)(=O)=O)n1 [Example 73, 4-{4-[2-(methanesulphonyl-methyl-amino)-4-methyl-benzylamino]-5-trifluoromethyl-pyrimidin-2-ylamino}-3-methoxy-N-(1-methyl-piperidin-4-yl)-benzamide]
23 | 1 nM | 0.84 nM | COc1cc(N2CCN(C(C)C)CC2)ccc1Nc1ncc(C(F)(F)F)c(NCc2ccc(F)cc2N(C)S(C)(=O)=O)n1 [Example 75]
24 | 2 nM | 0.88 nM | COc1cc(C(=O)N[C@H]2CC[C@H](N3CCOCC3)CC2)ccc1Nc1ncc(C(F)(F)F)c(NCc2ccc(C)cc2N(C)S(C)(=O)=O)n1 [Example 76]
25 | 4 nM | 0.93 nM | COc1cc(C(=O)NC2CCN(C)CC2)c(Cl)cc1Nc1ncc(C(F)(F)F)c(NCc2ccc(C)cc2N(C)S(C)(=O)=O)n1 [Example 78]
26 | 2 nM | 1 nM | COc1cc(N2CCN(C)CC2)ccc1Nc1ncc(C(F)(F)F)c(NCc2ccc(C)cc2N(C)S(C)(=O)=O)n1 [Example 79]
27 | 0.98 nM | 1 nM | Cc1ccc(CNc2nc(Nc3ccc(C(=O)NC4CCN(C)CC4)cc3C)ncc2C(F)(F)F)c(N(C)S(C)(=O)=O)c1 [Example 80]
28 | 1 nM | 1 nM | CNC(=O)c1ccc(Nc2ncc(C(F)(F)F)c(NCc3ccc(OC)cc3N(C)S(C)(=O)=O)n2)c(OC)c1 [Example 81]

Row | SMILES | IC50 (PTK2) | EC50 [1]
29 | COc1cc(C(=O)N[C@@H]2CN3CCC2CC3)ccc1Nc1ncc(C(F)(F)F)c(NCc2ccc(C)cc2N(C)S(C)(=O)=O)n1 [Example 74] | 3 nM | 0.8 nM
